Measurements taken from US20230000996A1, “RAPAFUCIN DERIVATIVE COMPOUNDS AND METHODS OF USE THEREOF” (The Johns Hopkins University, priority 2019, published 2023).

Assays:
A549 = assay: Cell proliferation assay (Prolif.), IC50 scored relative to DMSO control; format: cell-based; settings: A549 cells; for Rel. Prolif., A549: proliferation response relative to DMSO control, scored low/medium/high; for Prolif, A549: IC50 class relative to DMSO control
Protocol: Cell Proliferation Assay (Prolif.) Guo et al. (2018) Nat. Chem. 11:254-63. Specific cell lines are indicated in each assay and cultured in complete growth media. Activity is scored according to the IC50 values relative to DMSO control. “Low” indicates an IC50 greater than 600 nM, “Medium” indicates an IC50 between 300 nM and 600 nM “High” indicates an IC50 less than 300 nM. “Rel.Uptake” refers to uptake activity characterization relative to a single concentration assay. “Low” indicates a response greater than 0.6 times the activity relative to DMSO, “Medium” indicates a response between 0.6 and 0.3 times the activity relative to DMSO, “High” indicates a response less than 0.3 times the activity relative to DMSO.

[1] = Nucleoside uptake, single concentration assay (Rel.Uptake); cell line indicated in each table; format: cell-based; settings: 293T cells, response relative to DMSO
Protocol: Nucleoside Uptake Assay (uptake). Nuceloside uptake assays were performed with using 3H-Thymidine as described in Guo et al. (2018) Nat. Chem. 11:254-63. Specific cell lines are indicated in each assay and cultured in complete growth media. Activity is scored according to the IC50 values relative to DMSO control. “Low” indicates an IC50 greater than 600 nM, “Medium” indicates an IC50 between 300 nM and 600 nM “High” indicates an IC50 less than 300 nM. “Rel.Uptake” refers to uptake activity characterization relative to a single concentration assay. “Low” indicates a response greater than 0.6 times the activity relative to DMSO, “Medium” indicates a response between 0.6 and 0.3 times the activity relative to DMSO, “High” indicates a response less than 0.3 times the activity relative to DMSO.

[2] = nucleoside uptake, single concentration assay

Row | Structure (SMILES) | Rel. Prolif., A549 (A549) | Prolif, A549 (A549) | Rel. Uptake, 293T [1, 2] | further results
1 | CCCC[C@H]1C(=O)N[C@@H](Cc2ccc3ccccc3c2)C(=O)N(C)[C@@H](COC(C)(C)C)C(=O)NCC(=O)N(C)CCC=CC(=O)OCC(C)(C)C(=O)C(=O)N2CCCC[C@H]2C(=O)O[C@H](CCc2c(OC)ccc(OC)c2OC)c2cccc(c2)OCC(=O)N1C [Compound 564] | low |  |  | 
2 | CCCC[C@H]1C(=O)N[C@@H](Cc2ccc3ccccc3c2)C(=O)N(C)[C@@H](COC(C)(C)C)C(=O)NCC(=O)N(C)CCC=CC(=O)OCC(C)(C)C(=O)C(=O)N2CCN(C)C[C@H]2C(=O)O[C@H](CCc2ccc(OC)c(OC)c2)c2cccc(c2)OCC(=O)N1C [Compound 572] | medium | me- dium |  | 
3 | CCCC[C@H]1C(=O)N[C@@H](Cc2ccc3ccccc3c2)C(=O)N(C)[C@@H](COC(C)(C)C)C(=O)NCC(=O)N(C)CCC=CC(=O)OCC(C)(C)C(=O)C(=O)N2CCCC[C@H]2C(=O)O[C@H](CCc2ccc(OC)c(OC)c2OC)c2cccc(c2)OCC(=O)N1C [Compound 561] | medium | me- dium |  | 
4 | CCCC[C@H]1C(=O)N[C@@H](Cc2ccc3ccccc3c2)C(=O)N(C)[C@@H](COC(C)(C)C)C(=O)NCC(=O)N(C)CCC=CC(=O)OCC(C)(C)C(=O)C(=O)N2CCCC[C@H]2C(=O)O[C@H](CCc2ccc(OC)c(OC)c2)c2ccc(F)c(c2)OCC(=O)N1C [Compound 576] | medium | me- dium |  | 
5 | CCCC[C@H]1C(=O)N[C@@H](Cc2ccc3ccccc3c2)C(=O)N(C)[C@@H](COC(C)(C)C)C(=O)NCC(=O)N(C)CCC=CC(=O)OCC(C)(C)C(=O)C(=O)N2CCCC[C@H]2C(=O)O[C@H](CCc2cc(OC)c(OC)cc2OC)c2cccc(c2)OCC(=O)N1C [Compound 562] | medium | me- dium |  | 
6 | CCCC[C@H]1C(=O)N[C@@H](Cc2ccc3ccccc3c2)C(=O)N(C)[C@@H](COC(C)(C)C)C(=O)NCC(=O)N(C)CCC=CC(=O)OCC(C)(C)C(=O)C(=O)N2CCCC[C@H]2C(=O)O[C@H](CCc2ccc(OC)c(OC)c2)c2cc(ccc2F)OCC(=O)N1C [Compound 573] | low |  |  | 
7 | CCCC[C@H]1C(=O)N[C@@H](Cc2ccc3ccccc3c2)C(=O)N(C)[C@@H](COC(C)(C)C)C(=O)NCC(=O)N(C)CCC=CC(=O)OCC(C)(C)C(=O)C(=O)N2CCCC[C@H]2C(=O)O[C@H](CCc2ccc(OC)c(OC)c2)c2cc(F)cc(c2)OCC(=O)N1C [Compound 574] | low |  |  | 
8 | CCCC[C@H]1C(=O)N[C@@H](Cc2ccc3ccccc3c2)C(=O)N(C)[C@@H](COC(C)(C)C)C(=O)NCC(=O)N(C)CCC=CC(=O)OCC(C)(C)C(=O)C(=O)N2CCCC[C@H]2C(=O)O[C@H](CCc2cc(OC)c(OC)c(OC)c2)c2cccc(c2)OCC(=O)N1C [Compound 560] | medium | me- dium |  | 
9 | CCCC[C@H]1C(=O)N[C@@H](Cc2ccc3ccccc3c2)C(=O)N(C)[C@@H](COC(C)(C)C)C(=O)NCC(=O)N(C)CCC=CC(=O)OCC(C)(C)C(=O)C(=O)N2CCCC[C@H]2C(=O)O[C@H](CCc2cc(F)c(OC)c(OC)c2)c2cccc(c2)OCC(=O)N1C [Compound 568] | medium | me- dium |  | 
10 | CCCC[C@H]1C(=O)N[C@@H](Cc2ccc3ccccc3c2)C(=O)N(C)[C@@H](COC(C)(C)C)C(=O)NCC(=O)N(C)CCC=CC(=O)OCC(C)(C)C(=O)C(=O)N2CCN(C(=O)OCC3c4ccccc4-c4ccccc43)C[C@H]2C(=O)O[C@H](CCc2ccc(OC)c(OC)c2)c2cccc(c2)OCC(=O)N1C [Compound 571] | low |  |  | 
11 | CCCC[C@H]1C(=O)N[C@@H](Cc2ccc3ccccc3c2)C(=O)N(C)[C@@H](COC(C)(C)C)C(=O)NCC(=O)N(C)CCC=CC(=O)OCC(C)(C)C(=O)C(=O)N2CCCC[C@H]2C(=O)O[C@H](CCc2cc(OC)c(OC)cc2F)c2cccc(c2)OCC(=O)N1C [Compound 569] | medium | me- dium |  | 
12 | CCCC[C@H]1C(=O)N[C@@H](Cc2ccc3ccccc3c2)C(=O)N(C)[C@@H](COC(C)(C)C)C(=O)NCC(=O)N(C)CCC=CC(=O)OCC(C)(C)C(=O)C(=O)N2CCCC[C@H]2C(=O)O[C@H](CCc2cc(O)c(OC)c(OC)c2)c2cccc(c2)OCC(=O)N1C [Compound 566] | medium | me- dium |  | 
13 | CCCC[C@H]1C(=O)N[C@@H](Cc2ccc3ccccc3c2)C(=O)N(C)[C@@H](COC(C)(C)C)C(=O)NCC(=O)N(C)CCC=CC(=O)OCC(C)(C)C(=O)C(=O)N2CCCC[C@H]2C(=O)O[C@H](CCc2cc(OC)cc(OC)c2OC)c2cccc(c2)OCC(=O)N1C [Compound 563] | low |  |  | 
14 | COc1ccc(CC[C@H]2OC(=O)[C@@H]3CCCCN3C(=O)C(=O)C(C)(C)COC(=O)C=CCCN(C)C(=O)[C@H](CC(C)C)N(C)C(=O)[C@H]3CCCN3C(=O)[C@H](Cc3cccc(NC(C)=O)c3)NC(=O)[C@H](c3ccccc3)NC(=O)CCC(=O)Nc3cccc2c3)cc1OC [Compound 1588] |  |  | High (“High” indicates a response less than 0.3 times the activity relative to DMSO) | 
15 | COc1ccc(CC[C@H]2OC(=O)[C@@H]3CCCCN3C(=O)C(=O)C(C)(C)COC(=O)C=CCCN(C)C(=O)[C@@H]3CCCN3C(=O)[C@H](COC(C)(C)C)N(C)C(=O)[C@H](c3ccccc3)NC(=O)[C@H](C)N(C)C(=O)COc3cc(F)cc2c3)cc1OC [Compound 1596] |  |  | Low (“Low” indicates a response greater than 0.6 times the activity relative to DMSO) | 
16 | COc1ccc(CC[C@H]2OC(=O)[C@@H]3CCCCN3C(=O)C(=O)C(C)(C)COC(=O)C=CCCN(C)NC(c3ccccc3)C(=O)N(C)[C@@H](Cc3ccccc3)C(=O)N3CCC[C@@H]3C(=O)N(C)[C@@H](CC(C)C)C(=O)C(=O)CCOc3cccc2c3)cc1OC (stereo partly shown) [Compound 1556] |  |  | low | 
17 | COc1ccc(CC[C@H]2OC(=O)[C@@H]3CCCCN3C(=O)C(=O)C(C)(C)CNC(=O)C=CCCN(C)C(=O)[C@H](CC(C)C)N(C)C(=O)[C@H]3CCCN3C(=O)[C@H](Cc3ccccc3)N(C)C(=O)C(c3ccccc3)NC(=O)CCC(=O)Nc3cccc2c3)cc1OC (stereo partly shown) [Compound 1555] |  |  | high | 
18 | COc1ccc(CC[C@H]2OC(=O)[C@@H]3CCCCN3C(=O)C(=O)C(C)(C)COC(=O)C=CCCN(C)C(=O)[C@@H](Cc3ccccc3)NC(=O)CN(C)C(=O)[C@@H](Cc3ccccc3)NC(=O)[C@H](Cc3ccc(O)cc3)N(C)C(=O)COc3ccc(F)c2c3)cc1OC [Compound 1575] |  |  | low | 
19 | COc1cc(O)c(CC[C@H]2OC(=O)[C@@H]3CCCCN3C(=O)C(=O)C(C)(C)COC(=O)C=CCCN(C)C(=O)[C@@H](Cc3ccccc3)NC(=O)CN(C)C(=O)[C@@H](Cc3ccccc3)NC(=O)[C@H](Cc3ccc(O)cc3)N(C)C(=O)COc3cccc2c3)cc1OC [Compound 1568] |  |  | low | 
20 | CCCC[C@H]1C(=O)N[C@@H](Cc2ccc3ccccc3c2)C(=O)N(C)[C@@H](COC(C)(C)C)C(=O)NCC(=O)N(C)CCC=CC(=O)OCC(C)(C)C(=O)C(=O)N2CCCC[C@H]2C(=O)O[C@H](CCc2ccc(OC)c(OC)c2)c2cccc(c2F)OCC(=O)N1C [Compound 1563] |  |  | high | 
21 | COc1cc(CC[C@H]2OC(=O)[C@@H]3CCCCN3C(=O)C(=O)C(C)(C)COC(=O)C=CCCN(C)C(=O)[C@@H](Cc3ccccc3)NC(=O)CN(C)C(=O)[C@@H](Cc3ccccc3)NC(=O)[C@H](Cc3ccc(O)cc3)N(C)C(=O)COc3cccc2c3)cc(O)c1OC [Compound 1567] |  |  | medium | 
22 | COc1ccc(CC[C@H]2OC(=O)[C@@H]3CCCCN3C(=O)C(=O)C(C)(C)COC(=O)C=CCCN(C)C(=O)[C@H](CC(C)C)N(C)C(=O)[C@H]3CCCN3C(=O)[C@H](CC(=O)OC(C)(C)C)N(C)C(=O)C(c3ccccc3)NC(=O)CCC(=O)Nc3cccc2c3)cc1OC (stereo partly shown) [Compound 1066] |  |  |  | Rel. Uptake, 293T ([1]; single concentration): high
23 | COc1ccc(CC[C@H]2OC(=O)[C@@H]3CCCCN3C(=O)C(=O)C(C)(C)COC(=O)C=CCCN(C)C(=O)[C@@H](Cc3ccccc3)NC(=O)CN(C)C(=O)[C@@H](Cc3ccccc3)NC(=O)[C@H](Cc3ccc(O)cc3)N(C)C(=O)COc3cccc2c3)c(O)c1OC [Compound 1584] |  |  | low | 
24 | COc1ccc(CC[C@H]2OC(=O)[C@@H]3CCCCN3C(=O)C(=O)C(C)(C)COC(=O)C=CCCN(C)C(=O)[C@H](CC(C)C)N(C)C(=O)[C@H]3CCCN3C(=O)[C@H](Cc3ccc(NC(=O)Cc4cccnc4)cc3)NC(=O)[C@H](c3ccccc3)NC(=O)CCC(=O)Nc3cccc2c3)cc1OC [Compound 1589] |  |  | Low (“Low” indicates a response greater than 0.6 times the activity relative to DMSO) | 
25 | COc1ccc(CC[C@H]2OC(=O)[C@@H]3CCCCN3C(=O)C(=O)C(C)(C)COC(=O)C=CCCN(C)C(=O)[C@@H](c3ccccc3)NC(=O)[C@H](Cc3ccc(OP(C)(C)=O)cc3)NC(=O)[C@H]3CCCN3C(=O)[C@H](CC(C)C)N(C)C(=O)COc3cccc2c3)cc1OC [Compound 1520] |  |  | low | 
26 | COc1ccc(CC[C@H]2OC(=O)[C@@H]3CCCCN3C(=O)C(=O)C(C)(C)COC(=O)C=CCCN(C)C(=O)[C@@H](Cc3ccccc3)NC(=O)CN(C)C(=O)[C@@H](Cc3ccccc3)NC(=O)[C@H](Cc3ccc(O)cc3)N(C)C(=O)COc3cccc2c3)c(F)c1OC [Compound 1571] |  |  | low | 
